In patent publication US8828908B2, “Herbicidally active bicyclic 1,3-dione compounds” (Syngenta Limited, priority 2007, dated 2014):

How the values were obtained:
Format in all cases: in vivo
[1] = test system: Setaria faberi (SETFA); test: Example A post-emergence herbicidal glasshouse test; details: 312 h, evaluated after 13 days, 100=total damage to plant, 0=no damage
Experimental: (§1) Seeds of a variety of test species were sown in standard soil in pots. After cultivation for one day (pre-emergence) or after 8 days cultivation (post-emergence) under controlled conditions in a glasshouse (at 24/16° C., day/night; 14 hours light; 65% humidity), the plants were sprayed with an aqueous spray solution derived from the formulation of the technical active ingredient in acetone/water (50:50) solution containing 0.5% Tween 20 (polyoxyethelyene sorbitan monolaurate, CAS RN 9005-64-5). The test plants were then grown in a glasshouse under controlled conditions in a glasshouse (at 24/16° C., day/night; 14 hours light; 65% humidity) and watered twice daily. After 13 days for pre and post-emergence, the test was evaluated (100=total damage to plant; 0=no damage to plant).
(§2) Alopecurus myosuroides (ALOMY), Avena fatua (AVEFA), Setaria faberi (SETFA), Echinochloa crus-galli (ECHCG), Solanum nigrum (SOLNI) and Amaranthus retroflexus (AMARE)

[2] = test system: Amaranthus retroflexus (AMARE); test: as above; details: 312 h, evaluated after 13 days, 100=total damage to plant, 0=no damage
Experimental: as §1, §2

[3] = test system: Echinochloa crus-galli (ECHCG); test: as above; details: 312 h, evaluated after 13 days, 100=total damage to plant, 0=no damage
Experimental: as §1, §2

[4] = test system: Avena fatua (AVEFA); test: as above; details: 312 h, evaluated after 13 days, 100=total damage to plant, 0=no damage
Experimental: as §1, §2

[5] = test system: Alopecurus myosuroides (ALOMY); test: as above; details: 312 h, evaluated after 13 days, 100=total damage to plant, 0=no damage
Experimental: as §1, §2

[6] = test system: Setaria faberi (SETFA); test: Example A pre-emergence herbicidal glasshouse test; details: 312 h, Rate 250 g/ha, evaluated after 13 days, 100=total damage to plant, 0=no damage to plant
Experimental: as §1, §2

[7] = test system: Amaranthus retroflexus (AMARE); test: Example A pre-emergence herbicidal glasshouse test; details: 312 h, Rate 250 g/ha, evaluated after 13 days, 100=total damage to plant, 0=no damage to plant
Experimental: as §1, §2

[8] = test system: Echinochloa crus-galli (ECHCG); test: Example A pre-emergence herbicidal glasshouse test; details: 312 h, Rate 250 g/ha, evaluated after 13 days, 100=total damage to plant, 0=no damage to plant
Experimental: as §1, §2

[9] = test system: Avena fatua (AVEFA); test: Example A pre-emergence herbicidal glasshouse test; details: 312 h, Rate 250 g/ha, evaluated after 13 days, 100=total damage to plant, 0=no damage to plant
Experimental: as §1, §2

[10] = test system: Alopecurus myosuroides (ALOMY); test: Example A pre-emergence herbicidal glasshouse test; details: 312 h, Rate 250 g/ha, evaluated after 13 days, 100=total damage to plant, 0=no damage to plant
Experimental: as §1, §2

SMILES | pest or weed control at 250 g/ha [1] | pest or weed control at 250 g/ha [2] | pest or weed control at 250 g/ha [3] | pest or weed control at 250 g/ha [4] | pest or weed control at 250 g/ha [5] | pest or weed control at 250 g/ha [6] | pest or weed control at 250 g/ha [7] | pest or weed control at 250 g/ha [8] | pest or weed control at 250 g/ha [9] | pest or weed control at 250 g/ha [10]
Cc1ccc(-c2ccc(F)c(F)c2)cc1C1=C(O)[C@H]2CC[C@H](C2)C1=O (single isomer, unassigned) [Compound T9] | 80% | 0% | 70% | 40% | 10% | 50% | 0% | 0% | 0% | 0%
Cc1ccc(-c2ccccc2C)cc1C1=C(O)[C@H]2CC[C@H](C2)C1=O (single isomer, unassigned) [Compound T18] | 0% | 0% | 0% | 0% | 0% | 0% | 0% | 0% | 0% | 0%
Cc1cccc(-c2ccc(C)c(C3=C(O)[C@H]4CC[C@H](C4)C3=O)c2)c1 (single isomer, unassigned) [Compound T19] | 50% | 20% | 40% | 0% | 0% | 0% | 0% | 0% | 0% | 0%
Cc1ccc(-c2ccc(C)c(C3=C(O)[C@H]4CC[C@H](C4)C3=O)c2)cc1 (single isomer, unassigned) [Compound T20] | 50% | 0% | 60% | 0% | 20% | 0% | 0% | 40% | 0% | 10%
Cc1ccc(-c2ccccc2C(F)(F)F)cc1C1=C(O)[C@H]2CC[C@H](C2)C1=O (single isomer, unassigned) [Compound T21] | 20% | 0% | 0% | 0% | 0% | 0% | 0% | 0% | 0% | 0%
Cc1ccc(-c2cccc(C(F)(F)F)c2)cc1C1=C(O)[C@H]2CC[C@H](C2)C1=O (single isomer, unassigned) [Compound T22] | 50% | 0% | 20% | 0% | 0% | 10% | 0% | 20% | 0% | 0%
Cc1ccc(-c2ccc(C(F)(F)F)cc2)cc1C1=C(O)[C@H]2CC[C@H](C2)C1=O (single isomer, unassigned) [Compound T23] | 100% | 0% | 90% | 60% | 60% | 100% | 0% | 90% | 0% | 50%
CCc1ccc(-c2cccc(Cl)c2)cc1C1=C(O)[C@H]2CC[C@H](C2)C1=O (single isomer, unassigned) [Compound T38] | 40% | 0% | 70% | 0% | 20% | 0% | 0% | 60% | 0% | 0%
